Reference: ChEMBL document CHEMBL5543142, “Discovery of YFJ-36: Design, Synthesis, and Antibacterial Activities of Catechol-Conjugated β-Lactams against Gram-Negative Bacteria” (J Med Chem, 2024)

Tests used:
Format in all cases: functional
Conditions in all cases: time 18-20 hrs
Klebsiella pneumoniae [1] = test: Antibacterial activity against KPC-2 producing multidrug-resistant Klebsiella pneumoniae clinical isolate 15-3 assessed as inhibition of bacterial growth incubated for 18 to 20 hrs by two fold serial dilution assay
Pseudomonas aeruginosa [2] = test: Antibacterial activity against IMP-4 producing multidrug-resistant Pseudomonas aeruginosa clinical isolate 17-1 assessed as inhibition of bacterial growth incubated for 18 to 20 hrs by two fold serial dilution assay
Escherichia coli [3] = test: Antibacterial activity against ESBL-producing multidrug-resistant Escherichia coli clinical isolate 14-4 assessed as inhibition of bacterial growth incubated for 18 to 20 hrs by two fold serial dilution assay
Pseudomonas aeruginosa [4] = test: Antibacterial activity against IMP-4 producing multidrug-resistant Pseudomonas aeruginosa clinical isolate 17-13 assessed as inhibition of bacterial growth incubated for 18 to 20 hrs by two fold serial dilution assay
Acinetobacter baumannii [5] = test: Antibacterial activity against OXA-23 producing multidrug-resistant Acinetobacter baumannii clinical isolate 15-3 assessed as inhibition of bacterial growth incubated for 18 to 20 hrs by two fold serial dilution assay
Escherichia coli [6] = test: Antibacterial activity against ESBL-producing multidrug-resistant Escherichia coli clinical isolate 14-2 assessed as inhibition of bacterial growth incubated for 18 to 20 hrs by two fold serial dilution assay
Pseudomonas aeruginosa [7] = test: Antibacterial activity against IMP-4 producing multidrug-resistant Pseudomonas aeruginosa clinical isolate 19-17 assessed as inhibition of bacterial growth incubated for 18 to 20 hrs by two fold serial dilution assay
Klebsiella pneumoniae [8] = test: Antibacterial activity against KPC-2 producing multidrug-resistant Klebsiella pneumoniae clinical isolate 15-1 assessed as inhibition of bacterial growth incubated for 18 to 20 hrs by two fold serial dilution assay
Acinetobacter baumannii [9] = test: Antibacterial activity against OXA-23 producing multidrug-resistant Acinetobacter baumannii clinical isolate 15-2 assessed as inhibition of bacterial growth incubated for 18 to 20 hrs by two fold serial dilution assay
Acinetobacter baumannii [10] = test: Antibacterial activity against OXA-23 producing multidrug-resistant Acinetobacter baumannii clinical isolate 15-1 assessed as inhibition of bacterial growth incubated for 18 to 20 hrs by two fold serial dilution assay
Acinetobacter baumannii [11] = test: Antibacterial activity against OXA-23 producing multidrug-resistant Acinetobacter baumannii clinical isolate 15-5 assessed as inhibition of bacterial growth incubated for 18 to 20 hrs by two fold serial dilution assay
Klebsiella pneumoniae [12] = test: Antibacterial activity against KPC-2 producing multidrug-resistant Klebsiella pneumoniae clinical isolate 15-2 assessed as inhibition of bacterial growth incubated for 18 to 20 hrs by two fold serial dilution assay
Escherichia coli [13] = test: Antibacterial activity against ESBL-producing multidrug-resistant Escherichia coli clinical isolate 14-1 assessed as inhibition of bacterial growth incubated for 18 to 20 hrs by two fold serial dilution assay
Escherichia coli [14] = test: Antibacterial activity against Escherichia coli ATCC35218 assessed as inhibition of bacterial growth incubated for 18 to 20 hrs by two fold serial dilution assay
Acinetobacter baumannii [15] = test: Antibacterial activity against OXA-23 producing multidrug-resistant Acinetobacter baumannii clinical isolate 15-4 assessed as inhibition of bacterial growth incubated for 18 to 20 hrs by two fold serial dilution assay
Klebsiella pneumoniae [16] = test: Antibacterial activity against KPC-2 producing multidrug-resistant Klebsiella pneumoniae clinical isolate 15-5 assessed as inhibition of bacterial growth incubated for 18 to 20 hrs by two fold serial dilution assay
Pseudomonas aeruginosa [17] = test: Antibacterial activity against Pseudomonas aeruginosa ATCC 27853 assessed as inhibition of bacterial growth incubated for 18 to 20 hrs by two fold serial dilution assay
Pseudomonas aeruginosa [18] = test: Antibacterial activity against IMP-4 producing multidrug-resistant Pseudomonas aeruginosa clinical isolate 15-4 assessed as inhibition of bacterial growth incubated for 18 to 20 hrs by two fold serial dilution assay
Pseudomonas aeruginosa [19] = test: Antibacterial activity against IMP-4 producing multidrug-resistant Pseudomonas aeruginosa clinical isolate 15-1 assessed as inhibition of bacterial growth incubated for 18 to 20 hrs by two fold serial dilution assay
Pseudomonas aeruginosa [20] = test: Antibacterial activity against IMP-4 producing multidrug-resistant Pseudomonas aeruginosa clinical isolate 15-5 assessed as inhibition of bacterial growth incubated for 18 to 20 hrs by two fold serial dilution assay

Row | SMILES | MIC (Klebsiella pneumoniae [1]) | MIC (Pseudomonas aeruginosa [2]) | MIC (Escherichia coli [3]) | MIC (Pseudomonas aeruginosa [4]) | MIC (Acinetobacter baumannii [5]) | MIC (Escherichia coli [6]) | MIC (Pseudomonas aeruginosa [7]) | MIC (Klebsiella pneumoniae [8]) | MIC (Acinetobacter baumannii [9]) | MIC (Acinetobacter baumannii [10]) | MIC (Acinetobacter baumannii [11]) | MIC (Klebsiella pneumoniae [12]) | MIC (Escherichia coli [13]) | MIC (Escherichia coli [14]) | MIC (Acinetobacter baumannii [15]) | MIC (Klebsiella pneumoniae [16]) | MIC (Pseudomonas aeruginosa [17]) | MIC (Pseudomonas aeruginosa [18]) | MIC (Pseudomonas aeruginosa [19]) | MIC (Pseudomonas aeruginosa [20])
1 | Nc1nc(/C(=N/OC(C(=O)O)C2CCC2)C(=O)N[C@@H]2C(=O)N3C(C(=O)O)=C(CSCCNC(=O)c4ccc(O)c(O)c4Cl)CS[C@H]23)cs1.O=C(O)C(F)(F)F (stereo not given in full) | 16 µg/mL | 8 µg/mL | 0.25 µg/mL | 1 µg/mL | 16 µg/mL | 4 µg/mL | 0.5 µg/mL | 8 µg/mL | 32 µg/mL | 32 µg/mL | 64 µg/mL | 4 µg/mL | 0.5 µg/mL | 0.125 µg/mL | 32 µg/mL | 4 µg/mL | – | – | – | –
2 | CC(C)(C)C(O/N=C(\C(=O)N[C@@H]1C(=O)N2C(C(=O)O)=C(CSCCNC(=O)c3ccc(O)c(O)c3Cl)CS[C@H]12)c1csc(N)n1)C(=O)O.O=C(O)C(F)(F)F (stereo not given in full) | 16 µg/mL | – | 2 µg/mL | – | 2 µg/mL | 1 µg/mL | – | 0.25 µg/mL | 1 µg/mL | 2 µg/mL | 2 µg/mL | 1 µg/mL | 0.06 µg/mL | – | 1 µg/mL | 0.5 µg/mL | 4 µg/mL | 8 µg/mL | 4 µg/mL | 4 µg/mL
3 | CC(C)(O/N=C(\C(=O)N[C@@H]1C(=O)N2C(C(=O)O)=C(CSCCCNC(=O)c3ccc(O)c(O)c3Cl)CS[C@H]12)c1csc(N)n1)C(=O)O.O=C(O)C(F)(F)F | 8 µg/mL | – | 16 µg/mL | – | 32 µg/mL | 2 µg/mL | – | 16 µg/mL | 64 µg/mL | 32 µg/mL | 64 µg/mL | 4 µg/mL | 0.125 µg/mL | – | 64 µg/mL | 4 µg/mL | 4 µg/mL | 2 µg/mL | 1 µg/mL | 4 µg/mL
4 | CC(C)(O/N=C(\C(=O)N[C@@H]1C(=O)N2C(C(=O)O)=C(CSCCOCCNC(=O)c3ccc(O)c(O)c3Cl)CS[C@H]12)c1csc(N)n1)C(=O)O.O=C(O)C(F)(F)F | 8 µg/mL | – | 32 µg/mL | – | 32 µg/mL | 2 µg/mL | – | 8 µg/mL | 32 µg/mL | 32 µg/mL | 32 µg/mL | 4 µg/mL | 0.25 µg/mL | – | 64 µg/mL | 4 µg/mL | 4 µg/mL | 1 µg/mL | 1 µg/mL | 2 µg/mL
5 | Nc1nc(/C(=N/OC(C(=O)O)C2CCOCC2)C(=O)N[C@@H]2C(=O)N3C(C(=O)O)=C(CSCCNC(=O)c4ccc(O)c(O)c4Cl)CS[C@H]23)cs1.O=C(O)C(F)(F)F (stereo not given in full) | 8 µg/mL | – | 4 µg/mL | 1 µg/mL | 16 µg/mL | 16 µg/mL | 8 µg/mL | 16 µg/mL | 32 µg/mL | 32 µg/mL | 16 µg/mL | 16 µg/mL | 8 µg/mL | 4 µg/mL | 32 µg/mL | 16 µg/mL | – | – | – | –
6 | CC(C)(O/N=C(\C(=O)N[C@@H]1C(=O)N2C(C(=O)O)=C(CS[C@@H]3C[C@H]4CC[C@@H](C3)N4C(=O)c3ccc(O)c(O)c3Cl)CS[C@H]12)c1csc(N)n1)C(=O)O.O=C(O)C(F)(F)F | 64 µg/mL | – | 16 µg/mL | – | 64 µg/mL | 16 µg/mL | – | 2 µg/mL | 64 µg/mL | 64 µg/mL | > 64 µg/mL | 1 µg/mL | 0.25 µg/mL | – | > 64 µg/mL | 1 µg/mL | 2 µg/mL | 16 µg/mL | 16 µg/mL | 16 µg/mL
